Data reported in patent publication US7015329B2 (Janssen Pharmaceutica N. V., priority 2003, dated 2006).
pEC50: −log10 of the molar value.

Columns and labels:
Type in all cases: cell-based
[1] = target: T1, PPAR delta (Homo sapiens, UniProt Q03181); assay: Transfection assay for PPAR receptors (GAL4-LBD luciferase reporter), PPAR delta; conditions: Table 1; HEK293 cells co-transfected with PPAR LBD-GAL4 and GAL4 (UAS) luciferase reporter, 18–24 hrs
T1 construct: expressed in transfected cells; host or cells: HEK293
T1 sequence (Q03181 211-439 limits assumed): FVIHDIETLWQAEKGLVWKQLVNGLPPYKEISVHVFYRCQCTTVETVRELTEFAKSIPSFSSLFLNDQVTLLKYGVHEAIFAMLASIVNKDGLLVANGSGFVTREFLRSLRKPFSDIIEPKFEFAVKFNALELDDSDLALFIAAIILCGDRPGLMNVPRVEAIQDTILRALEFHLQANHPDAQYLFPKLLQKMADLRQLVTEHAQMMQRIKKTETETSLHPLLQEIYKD
Method: (§1) Transfection Assay Method for PPAR Receptors
(§2) HEK293 cells were grown in DMEM/F12 medium supplemented with 10% FBS and glutamine (Invitrogen) and incubated in a 5% CO2 incubator at 37° C. The cells were co-transfected using DMRIE-C reagent (Invitrogen) in serum free medium (Opti-MEM, Invitrogen) with two mammalian expression plasmids, one containing the DNA sequence coding for the ligand binding domains of either PPARαg or d fused to the yeast GAL4 DNA binding domain and the other containing the promoter sequence of the yeast GAL4 (UAS) fused to the firefly luciferase cDNA reporter. The next day, the medium was changed to DMEM/F12 medium supplemented with 5% charcoal treated serum (Hyclone) and glutamine. After 6 hrs the cells were trypsinized and seeded at a density of 50,000 cells/well into 96 well plates and incubated overnight as above. The cells were then treated with -test compounds or vehicle and incubated for 18–24 hrs as above. Luciferase reporter activity was measured using the Steady-Glo Luciferase Assay Kit from Promega. DMRIE-C Reagent was purchased from GIBCO Cat. No.10459-014. […] Steady-Glo Luciferase Assay Kit was purchased from Promega (Part#E254B).

[2] = target: T2, PPAR alpha (Homo sapiens, UniProt Q07869); assay: Transfection assay for PPAR receptors (GAL4-LBD luciferase reporter), PPAR alpha; conditions: 18–24 hrs
T2 construct: expressed in transfected cells; host or cells: HEK293
T2 sequence (Q07869 239-466 limits assumed): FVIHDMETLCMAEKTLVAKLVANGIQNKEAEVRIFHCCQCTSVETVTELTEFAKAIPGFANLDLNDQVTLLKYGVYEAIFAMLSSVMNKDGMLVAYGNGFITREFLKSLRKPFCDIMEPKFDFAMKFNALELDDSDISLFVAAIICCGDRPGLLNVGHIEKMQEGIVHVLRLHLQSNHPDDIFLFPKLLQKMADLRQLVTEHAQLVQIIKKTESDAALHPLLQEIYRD
Method: as §1
HEK293 cells were grown in DMEM/F12 medium supplemented with 10% FBS and glutamine (Invitrogen) and incubated in a 5% CO2 incubator at 37° C. The cells were co-transfected using DMRIE-C reagent (Invitrogen) in serum free medium (Opti-MEM, Invitrogen) with two mammalian expression plasmids, one containing the DNA sequence coding for the ligand binding domains of either PPARαg or d fused to the yeast GAL4 DNA binding domain and the other containing the promoter sequence of the yeast GAL4 (UAS) fused to the firefly luciferase cDNA reporter. The next day, the medium was changed to DMEM/F12 medium supplemented with 5% charcoal treated serum (Hyclone) and glutamine. After 6 hrs the cells were trypsinized and seeded at a density of 50,000 cells/well into 96 well plates and incubated overnight as above. The cells were then treated with -test compounds or vehicle and incubated for 18–24 hrs as above. Luciferase reporter activity was measured using the Steady-Glo Luciferase Assay Kit from Promega. DMRIE-C Reagent was purchased from GIBCO Cat. No.10459-014. OPTI-MEM I Reduced Serum Medium was purchased from GIBCO (Cat. No. 31985). Steady-Glo Luciferase Assay Kit was purchased from Promega (Part#E254B).
A variety of example compounds have been made and tested, with a range of in vitro results. Below are representative compounds and data; in some cases, where multiple EC50's are shown, multiple measurements were taken. Naturally, different compounds in Formula (I) may have not have activities identical to any one compound below.

[3] = target: T3, PPAR gamma (Homo sapiens, UniProt P37231); assay: Transfection assay for PPAR receptors (GAL4-LBD luciferase reporter), PPAR gamma; conditions: 18–24 hrs
T3 construct: expressed in transfected cells; host or cells: HEK293
T3 sequence (P37231 238-503 limits assumed): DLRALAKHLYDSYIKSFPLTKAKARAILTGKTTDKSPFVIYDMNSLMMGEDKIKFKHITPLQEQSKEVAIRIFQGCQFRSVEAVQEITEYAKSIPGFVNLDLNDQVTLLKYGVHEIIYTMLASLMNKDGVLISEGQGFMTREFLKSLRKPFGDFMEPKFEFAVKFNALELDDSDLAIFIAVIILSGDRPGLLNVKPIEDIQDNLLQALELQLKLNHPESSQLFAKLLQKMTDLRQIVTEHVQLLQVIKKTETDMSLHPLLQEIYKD
Method: as §1, §2

[4] = Table 1, HEK293 cells co-transfected with PPAR LBD-GAL4 and GAL4 (UAS) luciferase reporter
[5] = Table 2, compounds of interest, HEK293 cells, PPAR LBD-GAL4 luciferase reporter

Compound | pEC50 [1] | pEC50 [2, 4] | pEC50 [3, 4] | pEC50 [3, 5] | pEC50 [2, 5]
Cc1cc(SCc2nc(-c3ccc(C(F)(F)F)cc3)ns2)ccc1OCC(=O)O [Compound 1, {2-Methyl-4-[3-(4-trifluoromethyl-phenyl)-[1,2,4]thiadiazol-5-ylmethylsulfanyl]-phenoxy}-acetic acid] | 8.00 | 6.33 |  |  | 
CC(C)(Oc1ccc(SCc2nc(-c3ccc(C(F)(F)F)cc3)ns2)cc1)C(=O)O [Compound 2, 2-Methyl-2-{4-[3-(4-trifluoromethyl-phenyl)-[1,2,4]thiadiazol-5-ylmethylsulfanyl]-phenoxy}-propionic acid] | 7.70 | 6.81 |  |  | 
Cc1cc(SCc2nc(-c3ccc(C(F)(F)F)cc3)ns2)ccc1OC(C)(C)C(=O)O [Compound 3, 2-Methyl-2-{2-methyl-4-[3-(4-trifluoromethyl-phenyl)-[1,2,4]thiadiazol-5-ylmethylsulfanyl]-phenoxy}-propionic acid] | 8.12 | 7.06 |  |  | 
Cc1cc(SCc2nc(-c3ccc(OC(F)(F)F)cc3)ns2)ccc1OC(C)(C)C(=O)O [Compound 4, 2-Methyl-2-{2-methyl-4-[3-(4-trifluoromethoxy-phenyl)-[1,2,4]thiadiazol-5-ylmethylsulfanyl]-phenoxy}-propionic acid] |  | 7.48 | 4.93 |  | 
Cc1ccc(-c2nsc(CSc3ccc(OC(C)(C)C(=O)O)c(C)c3)n2)cc1 [Compound 5, 2-Methyl-2-[2-methyl-4-(3-p-tolyl-[1,2,4]thiadiazol-5-ylmethylsulfanyl)-phenoxy]-propionic acid] | 7.33 | 6.65 | < 5.52 |  | 
Cc1cc(SCc2nc(-c3ccc(C(C)(C)C)cc3)ns2)ccc1OC(C)(C)C(=O)O [Compound 6, 2-{4-[3-(4-tert-Butyl-phenyl)-[1,2,4]thiadiazol-5-ylmethylsulfanyl]-2-methyl-phenoxy}-2-methyl-propionic acid] | 7.03 | 7.19 | < 5.52 |  | 
Cc1cc(SCc2nc(-c3ccc(Cl)cc3)ns2)ccc1OC(C)(C)C(=O)O [Compound 7, 2-{4-[3-(4-Chloro-phenyl)-[1,2,4]thiadiazol-5-ylmethylsulfanyl]-2-methyl-phenoxy}-2-methyl-propionic acid] | 7.74 | 6.73 | < 5.52 |  | 
Cc1cc(SCc2nc(-c3ccc(OC(F)(F)F)c(Cl)c3)ns2)ccc1OC(C)(C)C(=O)O [Compound 8, 2-{4-[3-(3-Chloro-4-trifluoromethoxy-phenyl)-[1,2,4]thiadiazol-5-ylmethylsulfanyl]-2-methyl-phenoxy}-2-methyl-propionic acid] | 8.55 | 7.55 | < 5.52 |  | 
Cc1cc(SCc2nc(-c3ccc(Cl)c(Cl)c3)ns2)ccc1OC(C)(C)C(=O)O [Compound 9, 2-{4-[3-(3,4-Dichloro-phenyl)-[1,2,4]thiadiazol-5-ylmethylsulfanyl]-2-methyl-phenoxy}-2-methyl-propionic acid] | 7.89 | 6.98 | < 5.52 |  | 
Cc1cc(SCc2nc(-c3ccc(Cl)cc3Cl)ns2)ccc1OC(C)(C)C(=O)O [Compound 10, 2-{4-[3-(2,4-Dichloro-phenyl)-[1,2,4]thiadiazol-5-ylmethylsulfanyl]-2-methyl-phenoxy}-2-methyl-propionic acid] | 6.99 | 6.32 | < 5.52 |  | 
Cc1ccc(-c2nsc(CSc3ccc(OC(C)(C)C(=O)O)c(C)c3)n2)cc1C [Compound 11, 2-{4-[3-(3,4-Dimethyl-phenyl)-[1,2,4]thiadiazol-5-ylmethylsultanyl]-2-methyl-phenoxy}-2-methyl-propionic acid] | 7.03 | 6.94 |  |  | 
Cc1ccc(-c2nsc(CSc3ccc(OC(C)(C)C(=O)O)c(C)c3)n2)cc1Cl [Compound 12, 2-{4-[3-(3-Chloro-4-methyl-phenyl)-[1,2,4]thiadiazol-5-ylmethylsulfanyl]-2-methyl-phenoxy}-2-methyl-propionic acid] | 7.57 | 7.17 | 6.17 |  | 
Cc1cc(SCc2nc(-c3ccc(C(F)(F)F)c(F)c3)ns2)ccc1OC(C)(C)C(=O)O [Compound 13, 2-{4-[3-(3-Fluoro-4-trifluoromethyl-phenyl)-[1,2,4]thiadiazol-5-ylmethylsulfanyl]-2-methyl-phenoxy}-2-methyl-propionic acid] | 8.28 | 7.47 | 6.19 |  | 
Cc1cc(SCc2nc(-c3ccc(OC(F)(F)F)cc3)ns2)ccc1OC1(C(=O)O)CCCC1 [Compound 14, 1-{2-Methyl-4-[3-(4-trifluoromethoxy-phenyl)-[1,2,4]thiadiazol-5-ylmethylsulfanyl]-phenoxy}-cyclopentanecarboxylic acid] | < 6.00 | 6.13 | < 5.52 |  | 
Cc1cc(SCc2nsc(-c3ccc(OC(F)(F)F)cc3)n2)ccc1OC(C)(C)C(=O)O [Compound 17, 2-Methyl-2-{2-methyl-4-[5-(4-trifluoromethoxy-phenyl)-[1,2,4]thiadiazol-3-ylmethylsulfanyl]-phenoxy}-propionic acid] | 7.24 | 6.18 |  |  | 
Cc1cc(OCc2nc(-c3ccc(C(F)(F)F)cc3)ns2)ccc1OC(C)(C)C(=O)O [Compound 23, 2-Methyl-2-{2-methyl-4-[3-(4-trifluoromethyl-phenyl)-[1,2,4]thiadiazol-5-ylmethoxy]-phenoxy}-propionic acid] |  | 7.03 | < 5.52 |  | 
Cc1cc(SCCc2nc(-c3ccc(C(F)(F)F)cc3)ns2)ccc1OC(C)(C)C(=O)O [Compound 28, 2-Methyl-2-(2-methyl-4-{2-[3-(4-trifluoromethyl-phenyl)-[1,2,4]thiadiazol-5-yl]-ethylsulfanyl}-phenoxy)-propionic acid] |  | 7.43 | 6.33 |  | 
Cc1cc(SCc2cc(-c3ccc(C(F)(F)F)cc3)sn2)ccc1OCC(=O)O [Compound b, {2-Methyl-4-[5-(4-trifluoromethyl-phenyl)-isothiazol-3-ylmethylsulfanyl]-phenoxy}-acetic acid] |  |  |  | < 5.52 | < 5.52
Cc1cc(SCc2cc(-c3ccc(C(F)(F)F)cc3)ns2)ccc1OCC(=O)O [Compound c, {2-Methyl-4-[3-(4-trifluoromethyl-phenyl)-isothiazol-5-ylmethylsulfanyl]-phenoxy}-acetic acid] |  |  |  | < 5.52 | < 6.00
Cc1cc(SCc2cc(-c3ccc(C(F)(F)F)cc3)no2)ccc1OCC(=O)O [Compound f, {2-Methyl-4-[3-(4-trifluoromethyl-phenyl)-isoxazol-5-ylmethylsulfanyl]-phenoxy}-acetic acid] |  |  |  | < 5.52 | < 5.52
Cc1cc(SCc2cc(-c3ccc(C(F)(F)F)cc3)on2)ccc1OCC(=O)O [Compound g, {2-Methyl-4-[5-(4-trifluoromethyl-phenyl)-isoxazol-3-ylmethylsulfanyl]-phenoxy}-acetic acid] |  |  |  | < 5.52 | 5.66
{2-Methyl-4-[5-(4-trifluoromethyl-phenyl)-pyridin-3-ylmethylsulfanyl]-phenoxy}-acetic acid [Compound e] |  |  |  |  | < 5.52
